Measurements from patent US20240262815A1, “HETEROARYL DERIVATIVE, METHOD FOR PREPARING SAME, AND PHARMACEUTICAL COMPOSITION COMPRISING SAME AS ACTIVE INGREDIENT” (VORONOI INC., priority 2021, published 2024).

Legend:
BT-474 cancer cells = experiment: Inhibitory activity against proliferation of BT-474 cancer cells (CellTiter-Glo); format: cell-based; conditions: Homo sapiens, BT-474 ErbB2-overexpressing cancer cells, 120 hours after treatment
Method: To evaluate the inhibitory activity of a compound according to the present invention against the proliferation of ErbB2-overexpressing cancer cells, the following experiment were performed.
10% FBS-added McCOY'S 5A was used for SK-BR-3 cancer cells. 20% FBS-added RPMI-1640 was used for BT-474 cancer cells. Transduced Ba/F3 cells were cultured in a RPMI-1640 medium to which 1 μg/ml puromycin (Invitrogen) was added.
48 hours before compound treatment, each type of the SK-BR-3 and BT-474 cells were seeded at 5,000 cells/well in a white clear bottom 96 well plate (Corning). The compound was diluted in dimethyl sulfoxide (SK-BR-3: 3-fold dilution, a total of 12 concentrations, BT-474: […], a total of 12 concentrations) and injected at 1 μl to have the final concentration of 0.2 nM to 5 μM. As for measurement of live cells, 120 hours after treatment with the compound, a CellTiter-Glo luminescent cell-viability reagent (Promega) was used to store the cells at room temperature for 10 minutes, followed by measurement of luminescence using a reader (SynergyNeo, Biotek). Each test was repeated three times.
The result values were calculated as a cell growth rate (%) compared to the control group. A graph was plotted using the GraphPad Prism version 8.3.0 program, and GI50 values were calculated.

SK-BR-3 cancer cells = experiment: Inhibitory activity against proliferation of SK-BR-3 cancer cells (CellTiter-Glo); format: cell-based; conditions: Homo sapiens, SK-BR-3, 120 h, ErbB2-overexpressing SK-BR-3 cells, 120 hours after treatment
Method in brief: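 Cells seeded 48 h before dosing (SK-BR-3 in McCOY'S 5A + 10% FBS; BT-474 in RPMI-1640 + 20% FBS), then exposed 120 h to 12 concentrations, 0.2 nM-5 μM final. Viability by CellTiter-Glo luminescence; GI50 from growth rate vs control, triplicate runs.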

Compound | GI50 (BT-474 cancer cells) [nM] | GI50 (SK-BR-3 cancer cells) [nM]
C=CC(=O)Nc1cc(Nc2cc(N3OCC[C@@H]3c3cccc(-c4ccccc4)c3)ncn2)c(OC)cc1N(C)CCN(C)C [Example 173, (R)-N-(5-((6-(3-([1,1′-biphenyl]-3-yl)isoxazolidin-2-yl)pyrimidin-4-yl)amino)-2-((2-(dimethylamino)-ethyl)(methyl)-amino)-4-methoxy-phenyl)acrylamide] | < 50 | < 50
C=CC(=O)Nc1cc(Nc2cc(N3OCC[C@@H]3c3cccc(-c4cccc(F)c4)c3)ncn2)c(OC)cc1N1CCS(=O)(=O)CC1 [Example 290, (R)-N-(2-(1,1-dioxidothiomorph-olino)-5-((6-(3-(3′-fluoro-[1,1′-biphen-yl]-3-yl)isoxazol-idin-2-yl)pyrim-idin-4-yl)amino)-4-methoxyphen-yl)acrylamide] | < 50 | < 50
C=CC(=O)Nc1cc(Nc2cc(N3OCC[C@@H]3c3cccc(-c4cccc(F)c4)c3)ncn2)c(OC)cc1N1C[C@@H](C)O[C@@H](C)C1 [Example 292, N-(2-((2S,6R)-2,6-dimethylmorpho-lino)-5-((6-((R)-3-(3′-fluoro-[1,1′-biphenyl]-3-yl)-isoxazolidin-2-yl)-pyrimidin-4-yl)-amino)-4-methoxy-phenyl)acrylamide] | < 50 | < 50
C=CC(=O)Nc1cc(Nc2cc(N3OCC[C@@H]3c3cc(F)cc(Oc4ccn(C)n4)c3)ncn2)c(OC)cc1N1CCC(N2CCN(C3CC3)CC2)CC1 [Example 219, (R)-N-(2-(4-(4-cyclopropylpiper-azin-1-yl)piper-idin-1-yl)-5-((6-(3-(3-fluoro-5-((1-methyl-1H-pyr-azol-3-yl)oxy)-phenyl)isoxazol-idin-2-yl)pyrim-idin-4-yl)amino)-4-methoxyphen-yl)acrylamide] | < 50 | < 50
C=CC(=O)Nc1cc(Nc2cc(N3OCCC3c3cccc(OCc4ccccn4)c3)ncn2)c(OC)cc1N1CCN(C)CC1 (stereo not shown) [Example compound 96, N-(4-methoxy-2-(4-methylpiperazin-1-yl)-5-((6-(3-(3-(pyridin-2-ylmethoxy)phenyl)isoxazolidin-2-yl)pyrimidin-4-yl)amino)phenyl)acrylamide] | < 50 | < 50
C=CC(=O)Nc1cc(Nc2cc(N3OCC[C@@H]3c3cccc(-c4cccc(F)c4)c3)ncn2)c(OC)cc1N1C[C@H]2C[C@@H]1CN2C [Example 306, N-(5-((6-((R)-3-(3′-fluoro-[1,1′-biphenyl]-3-yl)-isoxazolidin-2-yl)-pyrimidin-4-yl)-amino)-4-meth-oxy-2-((1R,4R)-5-methyl-2,5-diaza-bicyclo[2.2.1]-heptan-2-yl)phen-yl)acrylamide] | < 50 | < 50
C=CC(=O)Nc1cc(Nc2cc(N3OCC[C@@H]3c3cccc(-c4cccc(F)c4)c3)ncn2)c(OC)cc1N1CCC(N2CCC2)CC1 [Example 317, (R)-N-(2-(4-(azeti-din-1-yl)piperidin-1-yl)-5-((6-(3-(3′-fluoro-[1,1′-biphen-yl]-3-yl)isoxazol-idin-2-yl)pyrim-idin-4-yl)amino)-4-methoxyphen-yl)acrylamide] | < 50 | < 50
C=CC(=O)Nc1cc(Nc2cc(N3OCC[C@@H]3c3cccc(-c4cccc(F)c4F)c3)ncn2)c(OC)cc1N1CCN(C)CC1 [Example 284, (R)-N-(5-((6-(3-(2′,3′-difluoro-[1,1′-biphenyl]-3-yl)isoxazolidin-2-yl)pyrimidin-4-yl)-amino)-4-methoxy-2-(4-methylpiper-azin-1-yl)phenyl)-acrylamide] | < 50 | < 50
C=CC(=O)Nc1cc(Nc2cc(N3OCC[C@@H]3c3cccc(C#CC(C)(C)C)c3)ncn2)c(OC)cc1N(C)CCN(C)C [Example 305, (R)-N-(2-((2-(dimethylamino)-ethyl)(methyl)-amino)-5-((6-(3-(3-(3,3-dimethyl-but-1-yn-1-yl)-phenyl)isoxazol-idin-2-yl)pyrim-idin-4-yl)amino)-4-methoxyphenyl)-acrylamide] | < 50 | < 50
C=CC(=O)Nc1cc(Nc2cc(N3OCC[C@@H]3c3ccc(F)c(-c4cccc(F)c4)c3)ncn2)c(OC)cc1N1CCN(C)CC1 [Example 308, (R)-N-(5-((6-(3-(3′,6-difluoro-[1,1′-biphenyl]-3-yl)-isoxazolidin-2-yl)-pyrimidin-4-yl)-amino)-4-methoxy-2-(4-methylpiper-azin-1-yl)phenyl)-acrylamide] | < 50 | < 50
C=CC(=O)Nc1cc(Nc2cc(N3OCC[C@@H]3c3cccc(-c4cc(F)cc(F)c4)c3)ncn2)c(OC)cc1N1CCN(C(C)=O)CC1 [Example 275, (R)-N-(2-(4-acetyl-piperazin-1-yl)-5-((6-(3-(3′,5′-difluoro-[1,1′-biphenyl]-3-yl)-isoxazolidin-2-yl)-pyrimidin-4-yl)-amino)-4-meth-oxyphenyl)acryl-amide] | < 50 | < 50
C=CC(=O)Nc1cc(Nc2cc(N3OCC[C@@H]3c3cccc(C#Cc4ccccc4)c3)ncn2)c(OC)cc1N(C)CCN(C)C [Example 297, (R)-N-(2-((2-(dimethylamino)-ethyl)(methyl)-amino)-4-methoxy-5-((6-(3-(3-(phen-ylethynyl)phenyl)-isoxazolidin-2-yl)-pyrimidin-4-yl)-amino)phenyl)-acrylamide] | < 50 | < 50
C=CC(=O)Nc1cc(Nc2cc(N3OCC[C@@H]3c3cccc(C#CC(C)(C)O)c3)ncn2)c(OC)cc1N(C)CCN(C)C [Example 309, (R)-N-(2-((2-(dimethylamino)-ethyl)(methyl)-amino)-5-((6-(3-(3-(3-hydroxy-3-methylbut-1-yn-1-yl)phenyl)isoxazol-idin-2-yl)pyrim-idin-4-yl)amino)-4-methoxyphen-yl)acrylamide] | < 50 | < 50
C=CC(=O)Nc1cc(Nc2cc(N3OCC[C@@H]3c3cccc(Oc4cc(F)cc(F)c4)c3)ncn2)c(OC)cc1N1CCN(C)CC1 [Example 225, (R)-N-(5-((6-(3-(3-(3,5-difluoro-phenoxy)phenyl)-isoxazolidin-2-yl)pyrimidin-4-yl)amino)-4-methoxy-2-(4-methylpiperazin-1-yl)phenyl)-acrylamide] | < 50 | < 50
C=CC(=O)Nc1cc(Nc2cc(N3OCC[C@@H]3c3cc(F)cc(Oc4cccc(F)c4)c3)ncn2)c(OC)cc1N1CCN(C)[C@H](C)C1 [Example 221, N-(2-((R)-3,4-dimethylpiper-azin-1-yl)-5-((6-((R)-3-(3-fluoro-5-(3-fluorophen-oxy)phenyl)-isox-azolidin-2-yl)pyr-imidin-4-yl)-amino)-4-methoxy-phenyl)acrylamide] | < 50 | < 50
C=CC(=O)Nc1cc(Nc2cc(N3OCC[C@@H]3c3cccc(-c4cccs4)c3)ncn2)c(OC)cc1N1CCC(N2CCN(C3CC3)CC2)CC1 [Example compound 135, (R)-N-(2-(4-(4-cyclopropylpiperazin-1-yl)piperidin-1-yl)-4-methoxy-5-((6-(3-(3-(thiophen-2-yl)phenyl)isoxazolidin-2-yl)pyrimidin-4-yl)amino)phenyl)acrylamide] | < 50 | < 50
C=CC(=O)Nc1cc(Nc2cc(N3OCC[C@@H]3c3cccc(-c4cccc(F)c4)c3)ncn2)c(OC)cc1N1CC2(C1)CN(S(C)(=O)=O)C2 [Example 322, (R)-N-(5-((6-(3-(3′-fluoro-[1,1′-biphenyl]-3-yl)-isoxazolidin-2-yl)-pyrimidin-4-yl)-amino)-4-methoxy-2-(6-(methylsulfon-yl)-2,6-diazaspiro-[3.3]heptan-2-yl)-phenyl)acrylamide] | < 50 | < 50
C=CC(=O)Nc1cc(Nc2cc(N3OCC[C@@H]3c3cccc(-c4ccccc4)c3)ncn2)c(OC)cc1N1CCO[C@@H](C)C1 [Example 175, N-(5-((6-((R)-3-([1,1′-biphenyl]-3-yl)isoxazolidin-2-yl)pyrimidin-4-yl)-amino)-4-methoxy-2-((S)-2-methyl-morpholino)phen-yl)acrylamide] | < 50 | < 50
C=CC(=O)Nc1cc(Nc2cc(N3OCC[C@@H]3c3cccc(C#Cc4cccc(O)c4)c3)ncn2)c(OC)cc1N1CCN(C)CC1 [Example 315, (R)-N-(5-((6-(3-(3-((3-hydroxy-phenyl)ethynyl)-phenyl)isoxazol-idin-2-yl)pyrim-idin-4-yl)amino)-4-methoxy-2-(4-methylpiperazin-1-yl)phenyl)acryl-amide] | 50 to 500 | 500 to 5000
C=CCN1CCN(c2cc(OC)c(Nc3cc(N4OCC[C@@H]4c4cccc(-c5ccccc5)c4)ncn3)cc2NC(=O)C=C)CC1 [Example 174, (R)-N-(5-((6-(3-([1,1′-biphenyl]-3-yl)isoxazolidin-2-yl)pyrimidin-4-yl)amino)-2-(4-allylpiperazin-1-yl)-4-methoxy-phenyl)acrylamide] | < 50 | < 50
